The text below walks through data of patent publication US5284852A, “Angiotensin II receptor blocking 2,3,6-substituted quinazolinones” (American Cyanamid Company, priority 1993, dated 1994).

The target of the assay is T1, Angiotensin II Receptor (Bos taurus, UniProt P25104).
T1 construct: The brownish tissue forming the adrenal cortex is scraped off and finely minced with scissors before homogenization; tissue Maxwell-Cohen (local slaughter house); host or cells: beef adrenal cortex, microsomal membranes (100,000×g pellet)
T1 sequence (P25104 1-359): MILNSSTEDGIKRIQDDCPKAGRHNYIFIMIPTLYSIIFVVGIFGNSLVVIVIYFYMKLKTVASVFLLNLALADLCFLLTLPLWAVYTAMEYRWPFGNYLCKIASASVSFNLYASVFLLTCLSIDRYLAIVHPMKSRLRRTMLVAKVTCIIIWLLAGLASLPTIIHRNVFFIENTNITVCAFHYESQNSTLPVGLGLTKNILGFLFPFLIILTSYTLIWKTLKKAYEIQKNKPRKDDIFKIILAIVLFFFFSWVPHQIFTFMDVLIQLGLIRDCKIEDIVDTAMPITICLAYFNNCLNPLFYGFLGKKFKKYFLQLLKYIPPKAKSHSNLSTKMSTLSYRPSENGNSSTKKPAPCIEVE
Nature of the assay: Receptor binding assay: displacement of [125I](Sar1,Ile8)AngII from beef adrenal cortex microsomal membranes. An excerpt:
Beef adrenals are obtained from a local slaughter house (Maxwell-Cohen). [^125 I](Sar^1,-Ile^8)AngII, S.A. 2200 Ci/mmole, is purchased from Dupont (NEN®, Boston, Mass.). All unlabeled AngII analogs, dimethylsulfoxide (DMSO), nucleotides, bovine serum albumin (BSA) are purchased from Sigma Chemical Co., St. Louis, Mo. U.S.A.
Approximately sixteen (16) to twenty (20) beef adrenal glands are processed as follows: fresh adrenal glands received on crushed ice are cleaned of fatty tissues and the tough membranes encapsulating the glands are removed and discarded. The brownish tissue forming the adrenal cortex is scraped off and finely minced with scissors before homogenization. Care is taken to avoid contamination with medullary tissue during dissection. The scraped cortices are suspended in twenty volumes of an ice-cold buffer medium consisting of 10 mM Tris.HCl (pH 7.4 at 22° C.) and containing 1.0 mM EDTA and 0.2M sucrose. Unless otherwise indicated, all subsequent operation are done at 4° C. […] The homogenate is centrifuged first at low speed (3,000×g) for 10 min. […] A 100 ul aliquot is withdrawn and the protein content of the preparation is determined by the Lowry's method (Lowry, O. H., Rosebrough, N. F., Farr, A. L. and Randall, R. J., Protein measurement with Folin phenol reagent. J. Biol. Chem., […], 265-275, 1951). […]
A general note: Displacement assays read how much labelled ligand stays bound in the presence of the test substance.

One may read the IC50 as the concentration that inhibits the measured activity by half. A high value points to lower potency. Consider `CCCCc1nc2ccc(COc3ccccc3)cc2c(=O)n1Cc1ccc(-c2ccccc2-c2nnn[nH]2)cc1` [Example 36, 2-Butyl-6-(phenoxymethyl)-3-[[2'-(1H-tetrazol-5-yl) [1,1'-biphenyl]-4-yl]methyl]-4(3H)-quinazolinone], for which the concentration for half-maximal inhibition (IC50) worked out at 130 nM.
